Tests used:
A2058 = assay: Cell growth inhibition assay (CellTiter-Glo); format: cell-based, human
Description: (§1) Cell Culture and Cell Growth Inhibition Assay.
(§2) The chosen cell lines are all human cancer cell lines except for the 4T1 murine breast cancer line, representing a wide variety of cancer types including breast (MDA-MB-453), kidney (A498), lung (H1975), pancreatic (PANC-1) and endometrial cancer (AN3CA, HEC-1A, and RL95-2), glioblastoma (U251 and U-87MG), melanoma (A2058 and LOXIMVI) and uterine sarcoma (MES-SA). All the cancer cell lines can be obtained from the American Type Culture Collection (ATCC, Manassas, Va., USA) with the exception of U251 which can be provided by the National Cancer Institute Tumor Repository (Frederick, Md.) and is cultured in the standard tissue culture media appropriate for each cell line. All the culture media are supplemented with 10% fetal bovine serum (FBS), 100 I.U./mL penicillin and 100 μg/mL streptomycin. For the cell growth inhibition assay, the cells are seeded in 96-well tissue culture plates at 500-3000 cells/well (seeding density empirically adjusted for each cell line based on growth rate optimization). The cells are allowed to attach for a minimum of 5 h prior to compound administration. The cells are incubated for a period of 4 days after compound addition. Following the incubation period, CellTiter-Glo reagent (Promega, Madison, Wis., USA) is added to all the wells to assess cell proliferation/viability. Luminescence is measured using an Envision microplate reader (Perkin Elmer, Waltham, Mass., USA). The IC50 values were calculated as the concentration which inhibited cell growth to 50% of DMSO control treated cell populations.

H522-T1 = assay: Cell growth inhibition assay (CellTiter-Glo); format: cell-based, human
Description: as §1, §2

HCT-116 = assay: Cell growth inhibition assay (CellTiter-Glo); format: cell-based, human
Description: as §1, §2

MCF-7 = settings: breast MCF-7; cited from earlier work
KM20L2 = settings: colon KM20L2; cited from earlier work
HL-60(TB) = settings: leukemia HL-60(TB); read-out: LC50 (the source's name); cited from earlier work
K-562 = settings: leukemia K-562; read-out: LC50 (the source's name); cited from earlier work
RPMI-8226 = settings: leukemia RPMI-8226; read-out: LC50 (the source's name); cited from earlier work
SK-MEL-2 = settings: melanoma SK-MEL-2; read-out: LC50 (the source's name); cited from earlier work
UACC-257 = settings: melanoma UACC-257; read-out: LC50 (the source's name); cited from earlier work
MDA-MB-435 = settings: breast cancer MDA-MB-435; read-out: LC50 (the source's name); cited from earlier work
[1] = Homo sapiens, 96 h, 4 days incubation
[2] = ratio IC50[IMR-90]:IC50[tumor cell line]

**Q.** With C=C(C)C[C@H](OC)[C@H](O)C(=O)N[C@@H](OC)[C@@H]1C[C@@H](O)C(C)(C)[C@@H](C[C@H](O)[C@@H](C)[C@H]2Cc3c(C)c(O)cc(O)c3C(=O)O2)O1 [Irciniastatin A, (+)-Irciniastatin A] as the compound, how does the IC50 (A2058; [1]) read?
**A.** Its IC50 is 0.4 nM.

**Q.** What about the “Selectivity vs. IMR-90, A2058” value (A2058; [2]) of the same compound?
**A.** The value was 68.

**Q.** What about the IC50 (H522-T1; [1]) of the same compound?
**A.** The IC50 was 1 nM.

**Q.** What about the “Selectivity vs. IMR-90, H522-T1” value (H522-T1; [2]) of the same compound?
**A.** Its value is 27.

**Q.** And the IC50 (HCT-116; [1])?
**A.** Its IC50 is 4 nM.

**Q.** And the “Selectivity vs. IMR-90, HCT-116” value (HCT-116; [2])?
**A.** The value was 7.

**Q.** What about the “Growth Inhibition of Cancer Cell Lines (GI50)” value (MCF-7) of the same compound?
**A.** The value was 3.2 ng/mL.

**Q.** What about the “Growth Inhibition of Cancer Cell Lines (GI50)” value (KM20L2) of the same compound?
**A.** The value was 2.7 ng/mL.

**Q.** What about the CC50 (HL-60(TB)) of the same compound?
**A.** The CC50 was greater than 25000 nM.

**Q.** What about the CC50 (K-562) of the same compound?
**A.** Its CC50 is greater than 25000 nM.

**Q.** And the CC50 (RPMI-8226)?
**A.** The CC50 was greater than 25000 nM.

**Q.** What about the CC50 (SK-MEL-2) of the same compound?
**A.** The CC50 was greater than 25000 nM.

**Q.** What about the CC50 (UACC-257) of the same compound?
**A.** The CC50 was greater than 25000 nM.

**Q.** What about the CC50 (MDA-MB-435) of the same compound?
**A.** The CC50 was less than 2.5 nM.
